According to patent US20230111310A1, “CARBOXYLIC ACID DERIVATIVE-SUBSTITUTED IMINO ARYL COMPOUND, PREPARATION METHOD THEREFOR, HERBICIDAL COMPOSITION AND USE THEREOF” (Qingdao Kingagroot Chemical Compound Co., Ltd., priority 2020, published 2023):

Tests used:
Format in all cases: in vivo
[1] = system: corn; assay: Pre-emergence stage, crop selectivity; conditions: 30 g/ha, 4 weeks
Description: (§1) The activity level criteria for plant damage (i.e., growth control rate) are as follows:
(§2) The aforementioned seeds of monocotyledonous and dicotyledonous weeds and main crops were put into a plastic pot loaded with soil and covered with 0.5-2 cm soil. The test compounds of the present invention was dissolved with acetone, then added with tween 80, diluted by a certain amount of water to reach a certain concentration, and sprayed immediately after sowing. The obtained seeds were incubated for 4 weeks in the greenhouse after spraying and the test results were observed. It was observed that the herbicide mostly had excellent effect at the application rate of 500, 250, 125, 60, 30, 15, 7.5 g/ha, especially to weeds such as Echinochloa crusgalli. Digitaria sanguinalis and Abutilon theophrasti, etc. And many compounds had good selectivity for corn, cotton, wheat, rice, soybean, and peanut etc. In addition, evaluate the weed control effect with the above activity standard level.

[2] = system: Soybeans; assay: Pre-emergence stage, crop selectivity; conditions: 30 g/ha, 4 weeks
Description: as §1, §2

[3] = system: Peanut; assay: Pre-emergence stage, crop selectivity; conditions: 30 g/ha, 4 weeks
Description: as §1, §2

[4] = system: cotton; assay: Pre-emergence stage, crop selectivity; conditions: 30 g/ha, 4 weeks
Description: as §1, §2

[5] = system: Echinochloa crusgalli; assay: Weeding effect in post-emergence stage; conditions: Dose 15 g/ha
Summary of the method: (§3)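 Weeds were treated post-emergence at 2-3 leaves with compound doses from 7.5 up to 500 g/ha, formulated in acetone–Tween 80 with methyl oleate synergist. Efficacy was assessed as growth control after 3 weeks.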

[6] = system: Alopecurus japonicus; assay: Weeding effect in post-emergence stage; conditions: Dose 15 g/ha
Summary of the method: as §3

[7] = system: Digitaria sanguinalis; assay: Weeding effect in post-emergence stage; conditions: Dose 15 g/ha
Summary of the method: as §3

[8] = system: Abutilon theophrasti; assay: Weeding effect in post-emergence stage; conditions: Dose 15 g/ha
Summary of the method: as §3

[9] = system: Setaria viridis; assay: Weeding effect in post-emergence stage; conditions: Dose 15 g/ha
Summary of the method: as §3

[10] = system: Eleusine indica; assay: Weeding effect in post-emergence stage; conditions: Dose 15 g/ha
Summary of the method: as §3

[11] = system: Amaranthus retroflexus; assay: Weeding effect in pre-emergence stage; conditions: 30 g/ha, 4 weeks
Description: as §1, §2

[12] = system: Capsella bursa-pastoris; assay: Weeding effect in pre-emergence stage; conditions: 30 g/ha, 4 weeks
Description: as §1, §2

[13] = system: Veronica didyma Tenore; assay: Weeding effect in pre-emergence stage; conditions: 30 g/ha, 4 weeks
Description: as §1, §2

[14] = system: Descurainia sophia; assay: Weeding effect in pre-emergence stage; conditions: 30 g/ha, 4 weeks
Description: as §1, §2

[15] = system: Abutilon theophrasti; assay: Weeding effect in pre-emergence stage; conditions: 30 g/ha, 4 weeks
Description: as §1, §2

[16] = system: Setaria viridis; assay: Weeding effect in pre-emergence stage; conditions: 30 g/ha, 4 weeks
Description: as §1, §2

[17] = level of fresh weight growth control rate
[18] = fresh weight control rate level

COC(=O)[C@@H](C)O/N=C/c1cc(-n2c(=S)cc(C(F)(F)F)n(C)c2=O)c(F)cc1Cl [349(R)]
plant damage level Corn [1]: 0 (Level 0: growth control rate is less than 5%)
plant damage level Soybeans [2]: 0 (Level 0: growth control rate is less than 5%)
plant damage level Peanut [3]: 0 (Level 0: growth control rate is less than 5%)
plant damage level Cotton [4]: 0 (Level 0: growth control rate is less than 5%)
Weeding effect in post-emergence stage, Echinochloa crusgalli [5, 17]: 5 (Level 5: growth control rate is above 85%)
Weeding effect in post-emergence stage, Alopecurus japonicus [6, 17]: 5 (Level 5: growth control rate is above 85%)
Weeding effect in post-emergence stage, Digitaria sanguinalis [7, 17]: 5 (Level 5: growth control rate is above 85%)
Weeding effect in post-emergence stage, Abutilon theophrasti [8, 17]: 5 (Level 5: growth control rate is above 85%)
Weeding effect in post-emergence stage, Setaria viridis [9, 17]: 5 (Level 5: growth control rate is above 85%)
Weeding effect in post-emergence stage, Eleusine indica [10, 17]: 5 (Level 5: growth control rate is above 85%)
activity level (growth control rate) Amaranthus retroflexus [11]: 5 (Level 5: growth control rate is above 85%)
activity level (growth control rate) Capsella bursa-pastoris [12]: 5 (Level 5: growth control rate is above 85%)
activity level (growth control rate) Veronica didyma Tenore [13]: 5 (Level 5: growth control rate is above 85%)
activity level (growth control rate) Descurainia sophia [14]: 5 (Level 5: growth control rate is above 85%)
activity level (growth control rate) Abutilon theophrasti [15]: 5 (Level 5: growth control rate is above 85%)
activity level (growth control rate) Setaria viridis [16]: 5 (Level 5: growth control rate is above 85%)

CCSC(=O)[C@@H](C)O/N=C/c1cc(-n2c(=O)cc(C(F)(F)F)n(C)c2=O)c(F)cc1Cl [398(R)]
plant damage level Corn [1]: 0 (Level 0: growth control rate is less than 5%)
plant damage level Soybeans [2]: 0 (Level 0: growth control rate is less than 5%)
plant damage level Peanut [3]: 0 (Level 0: growth control rate is less than 5%)
plant damage level Cotton [4]: 0 (Level 0: growth control rate is less than 5%)
Weeding effect in post-emergence stage, Echinochloa crusgalli (level) [5, 18]: 5 (Level 5: growth control rate is above 85%)
Weeding effect in post-emergence stage, Alopecurus japonicus (level) [6, 18]: 5 (Level 5: growth control rate is above 85%)
Weeding effect in post-emergence stage, Digitaria sanguinalis (level) [7, 18]: 5 (Level 5: growth control rate is above 85%)
Weeding effect in post-emergence stage, Abutilon theophrasti (level) [8, 18]: 5 (Level 5: growth control rate is above 85%)
Weeding effect in post-emergence stage, Setaria viridis (level) [9, 18]: 5 (Level 5: growth control rate is above 85%)
Weeding effect in post-emergence stage, Eleusine indica (level) [10, 18]: 5 (Level 5: growth control rate is above 85%)
activity level (growth control rate) Amaranthus retroflexus [11]: 5 (Level 5: growth control rate is above 85%)
activity level (growth control rate) Capsella bursa-pastoris [12]: 5 (Level 5: growth control rate is above 85%)
activity level (growth control rate) Veronica didyma Tenore [13]: 5 (Level 5: growth control rate is above 85%)
activity level (growth control rate) Descurainia sophia [14]: 5 (Level 5: growth control rate is above 85%)
activity level (growth control rate) Abutilon theophrasti [15]: 5 (Level 5: growth control rate is above 85%)
activity level (growth control rate) Setaria viridis [16]: 5 (Level 5: growth control rate is above 85%)
